Where a name gives a salt, the structure may show the parent alone.

The test system of experiment [1] is NCI-H292 lung cancer cells. Nature of the experiment: FDA drug screening, complete media vs cholesterol-free media without statin (TABLE 1). Format: cell-based, human.
The subject of experiment [2] is NCI-H292 lung cancer cells. Nature of the experiment: FDA drug screening, complete media vs cholesterol-free media with simvastatin (TABLE 2). Format: cell-based, human. Conditions: for Cholesterol-free media + simvastatin (0.04 μM) / Complete Media: NCI-H292 cells.
Where [3] appears, read: Complete minus Cholesterol-free, greater than 0 enhanced anti-cancer activity, about 0 neutral, below 0 antagonists.
[4] abbreviates: NCI-H292 cells in cholesterol-free media without statin.
The mark [5] stands for this setting: NCI-H292 cells in complete media.
Setting [6] is: FDA library drug in cholesterol-free media with simvastatin 0.04 μM.
Setting [7] is: FDA library drug in complete media.
Where [8] appears, read: complete media vs cholesterol-free media + simvastatin (0.04 μM), >0 enhanced anti-cancer activity, about 0 neutral, <0 antagonist.
Where [9] appears, read: NCI-H292 cells, cholesterol-free media without statin, FDA drug library screen.
Where [10] appears, read: NCI-H292 cells, complete media, FDA drug library screen.
The mark [11] stands for this setting: complete vs cholesterol-free media, >0 enhanced anti-cancer activity, about 0 neutral, <0 antagonist.
The mark [12] stands for this setting: cholesterol-free media with simvastatin 0.04 μM, FDA drug library screen (TABLE 2).
Setting [13] is: complete media, FDA drug library screen (TABLE 2).
Setting [14] is: complete media minus cholesterol-free media + simvastatin (0.04 μM), >0 enhanced anti-cancer activity, about 0 neutral, <0 antagonist.
The mark [15] stands for this setting: Complete minus Cholesterol-free, greater than 0 enhanced anti-cancer activity, about 0 neutral, below 0 antagonist.
Setting [16] is: NCI-H292 cells, FDA drug library screen, cholesterol-free media without statin.
[17] abbreviates: NCI-H292 cells, FDA drug library screen, complete media.
Where [18] appears, read: FDA drug library screen, cholesterol-free media with simvastatin 0.04 μM.
Setting [19] is: FDA drug library screen, complete media.
The mark [20] stands for this setting: NCI-H292 cells, cholesterol-free media without statin.
Where [21] appears, read: drug in cholesterol-free media with simvastatin 0.04 μM.
Setting [22] is: complete media vs cholesterol-free media + simvastatin (0.04 μM), […].
The mark [23] stands for this setting: Complete minus Cholesterol-free, >0 enhanced anti-cancer activity, about 0 neutral, <0 antagonist.
The mark [24] stands for this setting: cholesterol-free media with simvastatin 0.04 μM, cell growth value in FDA drug screen.
[25] abbreviates: complete media, cell growth value in FDA drug screen.
Where [26] appears, read: complete media minus cholesterol-free media + simvastatin, >0 enhanced anti-cancer activity, about 0 neutral, <0 antagonist.
Setting [27] is: complete vs cholesterol-free media, greater than 0 enhanced anti-cancer activity, about 0 neutral, below 0 antagonists.

Take `Cc1ccc(C(=O)Nc2ccc(S(=O)(=O)O)c3cc(S(=O)(=O)O)cc(S(=O)(=O)O)c23)cc1NC(=O)c1cccc(NC(=O)Nc2cccc(C(=O)Nc3cc(C(=O)Nc4ccc(S(=O)(=O)O)c5cc(S(=O)(=O)O)cc(S(=O)(=O)O)c45)ccc3C)c2)c1` [Suramin (sodium salt)]: the Difference in experiment [1] (setting [3]) is recorded as −0.70; in experiment [2] (setting [8]) it was −0.33. This compound also had a Cholesterol-free in experiment [1] (setting [4]) of 1.64. The Complete in experiment [1] (setting [5]) is reported as 0.9404. In addition, the “Cholesterol-free media + simvastatin (0.04 μM)” value in experiment [2] (setting [6]) was 1.303. Further, the “Complete Media” value in experiment [2] (setting [7]) was 0.9716.

`CC(=O)Nc1nnc(S(N)(=O)=O)s1` [Acetazolamide]: the Cholesterol-free in experiment [1] (setting [9]) was found to be 0.821. In experiment [1] (setting [10]), this compound displayed a Complete of 0.9414. Further, the Difference in experiment [1] (setting [11]) was 0.12; in experiment [2] (setting [14]), −0.02. Moreover, the “Cholesterol-free media + simvastatin (0.04 μM)” value in experiment [2] (setting [12]) is reported as 0.9594. Also, the “Complete Media” value in experiment [2] (setting [13]) is listed as 0.9398.

Turning to `O=C1O[C@H]([C@@H](O)CO)C(O)=C1O` [L-Ascorbic acid], the figures for the Difference in experiment [1] (setting [15]) and in experiment [2] (setting [8]) were −0.14 and −0.16, respectively. For the same compound, the Cholesterol-free in experiment [1] (setting [16]) is 1.001. Further, in experiment [1] (setting [17]), the Complete came to 0.8619. For the same compound, the “Cholesterol-free media + simvastatin (0.04 μM)” value in experiment [2] (setting [18]) is reported as 1.16. Besides, in experiment [2] (setting [19]), the “Complete Media” value stood at 1.003.

Turning to `CCN(CC)C(=O)/C(C#N)=C/c1cc(O)c(O)c([N+](=O)[O-])c1` [Entacapone], in experiment [1] (setting [9]), the Cholesterol-free is 0.7629. The same compound had a Complete in experiment [1] (setting [10]) of 0.9193. For the same compound, the Difference in experiment [1] (setting [11]) was 0.16; in experiment [2] (setting [8]), −0.14. In addition, the “Cholesterol-free media + simvastatin (0.04 μM)” value in experiment [2] (setting [18]) came out at 1.719. For the same compound, the “Complete Media” value in experiment [2] (setting [19]) amounted to 1.579.

Consider `C[C@H](O)[C@H](O)[C@H]1CNc2nc(N)[nH]c(=O)c2N1` [Tetrahydrobiopterin], for which the Difference in experiment [1] (setting [15]) is listed as −0.10; in experiment [2] (setting [8]) it was −0.36. This compound showed a Cholesterol-free in experiment [1] (setting [16]) of 0.9498. In addition, the Complete in experiment [1] (setting [17]) was found to be 0.8545. Further, in experiment [2] (setting [6]), the “Cholesterol-free media + simvastatin (0.04 μM)” value is reported as 1.389. Besides, the “Complete Media” value in experiment [2] (setting [7]) was found to be 1.025.

Regarding Goserelin (acetate), the Difference was −0.26 in experiment [1] (Complete minus Cholesterol-free, […]) and −0.25 in experiment [2] (setting [22]). In addition, the Cholesterol-free in experiment [1] (setting [20]) is 1.173. Besides, in experiment [1] (NCI-H292 cells, complete media), the Complete is reported as 0.9084. Moreover, in experiment [2] (setting [21]), the “Cholesterol-free media + simvastatin (0.04 μM)” value was 1.497. For the same compound, the “Complete Media” value in experiment [2] (drug in complete media) worked out at 1.249.

Turning to `CC(=O)O[C@H]1C[C@@H]2CC[C@@H]3[C@H](CC[C@@]4(C)[C@H]3C[C@H]([N+]3(C)CCCCC3)[C@@H]4OC(C)=O)[C@@]2(C)C[C@@H]1[N+]1(C)CCCCC1.[Br-].[Br-]` [Pancuronium (dibromide)], the Cholesterol-free in experiment [1] (setting [20]) stood at 1.193. In experiment [1] (NCI-H292 cells, complete media), the Complete is listed as 0.8678. Moreover, the Difference in experiment [1] (complete vs cholesterol-free media, […]) is recorded as −0.33; in experiment [2] (setting [22]) it was −0.24. In experiment [2] (setting [21]), the “Cholesterol-free media + simvastatin (0.04 μM)” value came to 1.121. In experiment [2] (drug in complete media), the “Complete Media” value is reported as 0.885.

On to `C[C@@](Cc1ccc(O)c(O)c1)(NN)C(=O)O` [Carbidopa], for which the Difference in experiment [1] (setting [15]) is on record as −0.16; in experiment [2] (setting [8]) it was −0.74. Besides, the Cholesterol-free in experiment [1] (setting [16]) worked out at 1.15. In experiment [1] (setting [17]), this compound gave a Complete of 0.9946. The “Cholesterol-free media + simvastatin (0.04 μM)” value in experiment [2] (setting [6]) is given as 1.956. The “Complete Media” value in experiment [2] (setting [7]) is listed as 1.221.

The compound `COc1ccc(C(=O)N2CCCC2=O)cc1` [Aniracetam] gave a Cholesterol-free in experiment [1] (setting [9]) of 0.69. This compound came in with a Complete in experiment [1] (setting [10]) of 1.062. The Difference is on record as 0.37 in experiment [1] (setting [11]) and −0.04 in experiment [2] (setting [14]). For the same compound, in experiment [2] (setting [12]), the “Cholesterol-free media + simvastatin (0.04 μM)” value is recorded as 1.041. In experiment [2] (setting [13]), the “Complete Media” value stood at 1.006.

In the case of `Cc1onc(-c2ccccc2)c1-c1ccc(S(N)(=O)=O)cc1` [Valdecoxib], the Difference in experiment [1] (setting [23]) was determined as 0.02; in experiment [2] (setting [26]), 0.03. The Cholesterol-free in experiment [1] (setting [9]) worked out at 0.9021. Besides, the Complete in experiment [1] (setting [10]) turned out to be 0.9224. Also, the “Cholesterol-free media + simvastatin (0.04 μM)” value in experiment [2] (setting [24]) worked out at 0.9234. In experiment [2] (setting [25]), the “Complete Media” value is recorded as 0.9538.

For the compound `CCOc1ccc(Cc2cc([C@]34OC[C@](CO)(O3)[C@@H](O)[C@H](O)[C@H]4O)ccc2Cl)cc1` [Ertugliflozin], the figures for the Difference in experiment [1] (setting [15]) and in experiment [2] (setting [26]) were −0.08 and 0.10, respectively. Besides, the Cholesterol-free in experiment [1] (setting [16]) was 1.071. In experiment [1] (setting [17]), this compound gave a Complete of 0.9907. Also, in experiment [2] (setting [24]), the “Cholesterol-free media + simvastatin (0.04 μM)” value worked out at 1.703. For the same compound, the “Complete Media” value in experiment [2] (setting [25]) was 1.808.

For `COC(=O)[C@@H]1[C@H]2C[C@H]3c4[nH]c5ccccc5c4CCN3C[C@@H]2CC[C@@H]1O` [Yohimbine (Hydrochloride)], the Difference is reported as −0.74 in experiment [1] (setting [3]) and 0.02 in experiment [2] (setting [26]). Further, the Cholesterol-free in experiment [1] (setting [4]) stood at 1.558. Further, the Complete in experiment [1] (setting [5]) came out at 0.818. Also, the “Cholesterol-free media + simvastatin (0.04 μM)” value in experiment [2] (setting [24]) worked out at 1.051. Moreover, the “Complete Media” value in experiment [2] (setting [25]) is 1.067.

`CCCCCN(C)CCC(O)(P(=O)(O)O)P(=O)(O)O` [Ibandronate (Sodium Monohydrate)]: the Difference is listed as −0.03 in experiment [1] (setting [23]) and −0.28 in experiment [2] (setting [8]). This compound also registered a Cholesterol-free in experiment [1] (setting [9]) of 1.101. The Complete in experiment [1] (setting [10]) was determined as 1.074. Also, in experiment [2] (setting [6]), the “Cholesterol-free media + simvastatin (0.04 μM)” value came to 1.077. Also, the “Complete Media” value in experiment [2] (setting [7]) was determined as 0.796.

`Cc1c(C)c2c(c(C)c1O)CC[C@@](C)(CCC[C@H](C)CCC[C@H](C)CCCC(C)C)O2` [α-Vitamin E] came in with a Cholesterol-free in experiment [1] (setting [20]) of 1.5. For the same compound, the Complete in experiment [1] (NCI-H292 cells, complete media) worked out at 1.082. Besides, the Difference in experiment [1] (setting [27]) is listed as −0.42; in experiment [2] (setting [8]) it was −0.59. Moreover, the “Cholesterol-free media + simvastatin (0.04 μM)” value in experiment [2] (setting [6]) is 1.493. The “Complete Media” value in experiment [2] (setting [7]) was determined as 0.9076.

In experiment [1] (setting [20]), `O=C(O)/C=C/C(=O)O` [Fumaric acid] yielded a Cholesterol-free of 1.029. Besides, the Complete in experiment [1] (NCI-H292 cells, complete media) is 0.6691. The values for the Difference in experiment [1] (setting [27]) and in experiment [2] (setting [8]) were −0.36 and −0.28, respectively. For the same compound, the “Cholesterol-free media + simvastatin (0.04 μM)” value in experiment [2] (setting [6]) worked out at 1.117. For the same compound, in experiment [2] (setting [7]), the “Complete Media” value is on record as 0.8401.

`O=C(O)CCn1c2c(c3ccccc31)C[C@H](NS(=O)(=O)c1ccc(F)cc1)CC2` [Ramatroban]: the Difference in experiment [1] (setting [23]) is reported as −0.25; in experiment [2] (setting [8]), −0.15. The compound also showed a Cholesterol-free in experiment [1] (setting [20]) of 0.905. Besides, the Complete in experiment [1] (NCI-H292 cells, complete media) stood at 0.6524. The “Cholesterol-free media + simvastatin (0.04 μM)” value in experiment [2] (setting [18]) is listed as 1.061. Also, the “Complete Media” value in experiment [2] (setting [19]) turned out to be 0.9101.

As for `CC[C@H]1[C@@H](O)[C@@H]2[C@H](CC[C@]3(C)[C@@H]([C@H](C)CCC(=O)O)CC[C@@H]23)[C@@]2(C)CC[C@@H](O)C[C@@H]12` [Obeticholic acid], the Cholesterol-free in experiment [1] (setting [9]) was 0.5907. The compound further yielded a Complete in experiment [1] (setting [10]) of 0.9124. Also, the Difference is listed as 0.32 in experiment [1] (setting [11]) and −0.13 in experiment [2] (setting [8]). In addition, in experiment [2] (setting [18]), the “Cholesterol-free media + simvastatin (0.04 μM)” value was determined as 1.258. Moreover, in experiment [2] (setting [19]), the “Complete Media” value came to 1.13.

On to Pazufloxacin (mesylate), for which the values for the Difference in experiment [1] (setting [23]) and in experiment [2] (setting [14]) were −0.28 and −0.01, respectively. Further, in experiment [1] (setting [20]), the Cholesterol-free amounted to 0.9858. The Complete in experiment [1] (NCI-H292 cells, complete media) stood at 0.7051. Further, the “Cholesterol-free media + simvastatin (0.04 μM)” value in experiment [2] (setting [12]) was found to be 0.9357. Besides, in experiment [2] (setting [13]), the “Complete Media” value is on record as 0.9248.

(Values after patent US20250144067A1, “PERSONALIZED STARVATION THERAPY FOR CANCER” (Faeth Therapeutics, Inc., priority 2021, published 2025).)
